From article PMC11472313, “Development of Fragment-Based Inhibitors of the Bacterial Deacetylase LpxC with Low Nanomolar Activity” (Journal of Medicinal Chemistry, 2024) come the findings set out here.

One may read the Ki as the dissociation constant of the complex between target and ligand, obtained from inhibition or displacement. High values mean lower affinity, low ones higher affinity. For orientation: fraction unbound means the share of the substance not bound to proteins or other matrix. What is called IC50 is the concentration that inhibits the measured activity by half. Higher therefore signals lower potency. What is called microsomal CLint is the capacity of the preparation to metabolise the compound, expressed as a volume cleared per time. Higher therefore signals rapid turnover.

One series has as its target T1, P. aeruginosa LpxC (Pseudomonas aeruginosa, UniProt P47205).
T1 construct: made in house; host or cells: E. coli BL21(DE3)
The series is described as follows: LC–MS/MS-based P. aeruginosa LpxC enzyme inhibition assay. The following applies: from IC50 via Cheng–Prusoff. Format: biochemical. From the text: As Pseudomonas aeruginosa is one of the so-called ESKAPE pathogens,[56] being the leading cause of nosocomial infections throughout the world, and carbapenem-resistant P. aeruginosa strains were assigned the highest priority (priority 1: critical) within the “WHO priority pathogens list for R&D of new antibiotics” (WHO 2017),[57] new antibacterial agents combating these bacteria are urgently required. Thus, our newly developed LpxC inhibitors should be tested for inhibitory activity toward P. aeruginosa LpxC, which shares 57% sequence identity with E. coli LpxC.[28] Therefore, a liquid chromatography with tandem mass spectrometry (LC–MS/MS)-based P. aeruginosa LpxC assay was established. […] After incubation and subsequent termination of the enzymatic reaction, the samples were subjected to LC–MS/MS analysis. Following the chromatographic separation of substrate 1 and deacetylated product 2, the eluted compounds were ionized and subjected to fragmentation. Three multiple reaction monitoring (MRM) transitions were detected per compound [precursor ions: m/z (substrate 1) 832; m/z (deacetylated product 2) 790; product ions: m/z (product 1) 385, collision energy = −60 V; m/z (product 2) 159, collision energy = −80 V; m/z (product 3) 79, collision energy = −140 V]. The MRM transitions 832 → 79 of substrate 1 and 790 → 79 of product 2 were used as quantifiers; the other mass transitions were used as qualifiers.
The protocol of the LC–MS/MS-based P. aeruginosa LpxC assay was based on the E. coli LpxC C63A enzyme assay. Compared to the fluorescence-based enzyme assay, the substrate was diluted 1:10 and the inhibitors were diluted 1:4.
The wells in a black, nonbinding, 96-well fluorescence microplate (Greiner Bio One, Frickenhausen) were filled with 93 μL of 2.69 μM UDP-3-O-[(R)-3-hydroxymyristoyl]-N-acetylglucosamine in assay buffer [50 mM KH2PO4/K2HPO4 (pH = 7.5), 80 μM dithiothreitol, 0.02% Brij 35]. In order to assay the inhibitors at final concentrations from 5 nM up to 5 μM, 2 μL of a respective dilution of the compounds in DMSO were added. The addition of 5 μL of a solution of purified P. aeruginosa LpxC (5 μg mL^–1) in assay buffer led to final concentrations of 2.5 μM UDP-3-O-[(R)-3-hydroxymyristoyl]-N-acetylglucosamine, 7.5 nM P. aeruginosa LpxC, 2% DMSO, and from 5 nM up to 5 μM inhibitor. The microplate was incubated for 30 min at 37 °C in a plate shaker. Then, the biochemical reaction was stopped by adding 40 μL of 0.625 M hydrochloric acid. The reaction mixtures were further incubated for 10 min, sealed, and stored at −80 °C until analysis.
LC–MS/MS-Analysis. The reaction mixtures were separated by ultrahigh performance liquid-chromatography (1290 II Infinity UHPLC, Agilent Technologies), and the eluted compounds were analyzed by mass spectrometry using electrospray ionization in negative ion mode with a triple quadrupole linear ion trap mass spectrometer (QTRAP 5500, AB Sciex LLC).
To analyze the eluted compounds by mass spectrometry, a MRM method was applied. The specific parameters of this method are given in Table S2 (Supporting Information). After detection and selection of the precursor ions (1: m/z 832; 2: m/z 790), both analytes were fragmented, leading to three identical product ions [m/z (product 1) 385, collision energy = −60 V; m/z (product 2) 159, collision energy = −80 V; m/z (product 3) 79, collision energy = −140 V]. The mass transitions 832 → 79 (substrate 1) and 790 → 79 (product 2) were used as quantifiers; the other mass transitions were used as qualifiers. The ratio between substrate 1 and product 2 was quantified by comparing the peak areas of the quantifiers. The percentual inhibition caused by each inhibitor concentration was determined with respect to the amount of the product formed in the noninhibited reaction after 30 min.
Each assay was performed at least two times on separate days. […]

Series [1] in a line: stability in mouse plasma. Format: in vitro ADME. The following applies: 1 μM compound, pooled CD-1 mouse plasma; for half-life at 1 μM: CD-1, mouse, pooled plasma, read-out: mouse plasma stability t1/2. On the procedure:
To determine stability in mouse plasma, the compound (1 μM) was incubated with pooled CD-1 mouse plasma (Neo Biotech, Nanterre, France). Samples were taken at defined time points by mixing aliquots with 4 volumes of acetonitrile containing internal standard (125 nM diphenhydramine). Samples were stored on ice until the end of the incubation, and the precipitated protein was removed by centrifugation (15 min, 4 °C, 4000g, 2 centrifugation steps). Concentration of the remaining test compound at the different time points was analyzed by HPLC–MS/MS (TSQ Quantum Access MAX, Thermo Fisher, Dreieich, Germany). The plasma stability of procain, propantheline, and diltiazem were determined in parallel to confirm enzymatic activity.

A short description of series [2]: plasma protein binding, mouse. It counts as in vitro ADME. The following applies: for fraction unbound: plasma. On the procedure:
(§1) The microsomal metabolic stability assay as well as the plasma protein binding assay were conducted as described previously.[78]

Series [3] in a line: MTT-based cytotoxicity assay. It counts as cell-based. The settings on record: human, HepG2 cells. From the text:
An MTT-based assay was employed to evaluate the viability of HepG2 cells after challenge with selected inhibitors and performed as described previously.[77]
A general note: Tetrazolium dyes change colour on reduction, which living cells bring about.

A short description of series [4]: microsomal metabolic stability, human. It counts as in vitro ADME. The following applies: human liver microsomes; for half-life: read-out: microsomal metabolic stability t1/2. As for the experimental part: Also, the plasma stability of the compounds in mouse plasma was generally low with half-lives between 22.9 min [(S)-13h] and 43.1 min [(S)-13j].
as §1
Samples were analyzed using an Agilent 1290 Infinity II HPLC system coupled to an AB Sciex QTrap 6500plus mass spectrometer. LC conditions were as follows: column: Agilent Zorbax Eclipse Plus C18, 50 × 2.1 mm, 1.8 μm; temperature: 30 °C; injection volume: 5 μL per sample; flow rate: 700 μL min^–1. Samples were run under acidic conditions. Solvents: (A) water + 0.1% formic acid; (B) 95% acetonitrile/5% H2O + 0.1% formic acid. Gradient elution: (A %): 0–0.1 min: 99%, 0.1–3.5 min: gradient from 99 to 50%, 3.5–3.8 min: gradient from 50 to 0%, 3.8–4.7 min: gradient from 0 to 99%. Mass transitions for controls and compounds are depicted in Table S3.
For orientation: Liver microsomes are vesicles of endoplasmic reticulum, rich in cytochrome P450 enzymes.

Several values for one entry are separate records, joined by “and”; a condition that tells them apart may be missing. Equal values may be shown once.

T1 sequence (P47205 whole entry): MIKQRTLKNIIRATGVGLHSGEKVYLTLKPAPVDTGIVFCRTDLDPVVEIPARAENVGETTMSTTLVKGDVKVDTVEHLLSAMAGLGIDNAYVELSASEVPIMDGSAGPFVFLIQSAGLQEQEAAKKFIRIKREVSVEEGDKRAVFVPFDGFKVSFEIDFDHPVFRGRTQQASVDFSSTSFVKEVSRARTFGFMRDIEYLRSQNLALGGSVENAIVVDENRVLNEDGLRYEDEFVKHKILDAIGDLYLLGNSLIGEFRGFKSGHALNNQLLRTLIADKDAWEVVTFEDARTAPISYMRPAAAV

The compound `O=C(NO)[C@H](COCc1ccccc1)OCc1ccc(C#Cc2ccc(CN3CCOCC3)cc2)cc1` [(S)-11a, (S)-3-(Benzyloxy)-N-hydroxy-2-[(4-{[4-(morpholinomethyl)phenyl]ethynyl}benzyl)oxy]propanamide] had a Ki on P. aeruginosa LpxC of 725 ± 335 nM.

At P. aeruginosa LpxC, `O=C(NO)[C@H](CNCc1ccccc1)OCc1ccc(C#Cc2ccc(CN3CCOCC3)cc2)cc1` [(S)-12a, (S)-3-(Benzylamino)-N-hydroxy-2-[(4-{[4-(morpholinomethyl)phenyl]ethynyl}benzyl)oxy]propanamide] had a Ki of 862 ± 70 nM.

As for `O=C(NC[C@H](OCc1ccc(C#Cc2ccc(CN3CCOCC3)cc2)cc1)C(=O)NO)c1ccccc1` [(S)-13a, (S)-N-{3-(Hydroxyamino)-2-[(4-{[4-(morpholinomethyl)phenyl]ethynyl}benzyl)oxy]-3-oxopropyl}benzamide], the affinity at P. aeruginosa LpxC, expressed as Ki, was 58.2 ± 0.1 nM.

As for `O=C(NC[C@H](OCc1ccc(C#Cc2ccc(CN3CCOCC3)cc2)cc1)C(=O)NO)c1cccc(-c2ccccc2)c1` [(S)-13c], the Ki at P. aeruginosa LpxC came out at 149 ± 14 nM.

Consider `O=C(NC[C@H](OCc1ccc(C#Cc2ccc(CN3CCOCC3)cc2)cc1)C(=O)NO)c1ccc(Oc2ccccc2)cc1` [(S)-13d], for which the Ki on P. aeruginosa LpxC was 196 ± 18 nM.

As for `O=C(NC[C@H](OCc1ccc(C#Cc2ccc(CN3CCOCC3)cc2)cc1)C(=O)NO)c1ccc2ccccc2n1` [(S)-13e], the affinity on P. aeruginosa LpxC, expressed as Ki, was 168 ± 8 nM.

On P. aeruginosa LpxC, `O=C(NC[C@H](OCc1ccc(C#Cc2ccc(CN3CCOCC3)cc2)cc1)C(=O)NO)c1cnc2ccccc2c1` [(S)-13f] gave a Ki of 91.1 ± 17.5 nM.

At P. aeruginosa LpxC, `O=C(NC[C@H](OCc1ccc(C#Cc2ccc(CN3CCOCC3)cc2)cc1)C(=O)NO)c1cc2ccccc2[nH]1` [(S)-13g] returned a Ki of 46 ± 16.4 nM.

Take `O=C(NC[C@H](OCc1ccc(C#Cc2ccc(CN3CCOCC3)cc2)cc1)C(=O)NO)c1c[nH]c2ccccc12` [(S)-13h]: in series [1], the half-life at 1 μM came to 22.9 ± 4.8 min. In series [2], this compound showed a fraction unbound of 0.0541. Besides, half-maximal inhibition in series [3] (IC50) required 15100 ± 1700 nM. At P. aeruginosa LpxC, this compound gave an inhibition constant (Ki) of 5.91 ± 1.47 nM. Further, in series [4], the microsomal CLint is less than 23 µL/min/mg and the half-life was greater than 60 min.

The compound `O=C(NC[C@H](OCc1ccc(C#Cc2ccc(CN3CCOCC3)cc2)cc1)C(=O)NO)c1cccc2[nH]ccc12` [(S)-13i] returned a Ki at P. aeruginosa LpxC of 10.3 ± 2 nM.

In the case of `O=C(NC[C@H](OCc1ccc(C#Cc2ccc(CN3CCOCC3)cc2)cc1)C(=O)NO)c1ccc2[nH]ccc2c1` [(S)-13j], in series [1], the “mouse plasma stability t1/2” value was determined as 43 ± 13 min and the half-life at 1 μM was found to be 43.1 min. Also, in series [2], the fraction unbound is 0.0795. The midpoint of inhibition in series [3], the IC50, lay at 8100 ± 1400 nM. In addition, the Ki on P. aeruginosa LpxC is 5.6 nM and 5.58 nM. In series [4], the microsomal CLint is less than 23 µL/min/mg and the half-life is greater than 60 min.

On to `O=C(NC[C@H](OCc1ccc(C#Cc2ccc(CN3CCOCC3)cc2)cc1)C(=O)NO)c1ccc[nH]1` [(S)-13k], for which the affinity at P. aeruginosa LpxC, expressed as Ki, was 29 ± 7.6 nM.

On to `O=C(NC[C@H](OCc1ccc(C#Cc2ccc(CN3CCOCC3)cc2)cc1)C(=O)NO)c1cc[nH]n1` [(S)-13l], for which, in series [1], the half-life at 1 μM stood at 24.2 ± 5 min. In addition, in series [2], the “plasma protein binding mouse” value came to 79.42 ± 2.5% and the fraction unbound was greater than 0.2. This compound showed an IC50 in series [3] of 30200 ± 1900 nM. At P. aeruginosa LpxC, the affinity corresponds to a Ki of 18 ± 2.9 nM. For the same compound, in series [4], the microsomal CLint is less than 23 µL/min/mg and the half-life was greater than 60 min.

On to `O=C(NC[C@H](OCc1ccc(C#Cc2ccc(CN3CCOCC3)cc2)cc1)C(=O)NO)c1cc(-c2ccccc2)[nH]n1` [(S)-13m], for which the Ki on P. aeruginosa LpxC is 41.9 ± 18.5 nM.

As to `Cc1noc(C)c1C(=O)NC[C@H](OCc1ccc(C#Cc2ccc(CN3CCOCC3)cc2)cc1)C(=O)NO` [(S)-13n], the Ki on P. aeruginosa LpxC came out at 80.4 ± 9.7 nM.

With `O=C(NO)[C@H](CN(Cc1ccccc1)Cc1ccccc1)OCc1ccc(C#Cc2ccc(CN3CCOCC3)cc2)cc1` [(S)-37, (S)-3-(Dibenzylamino)-N-hydroxy-2-[(4-{[4-(morpholinomethyl)phenyl]ethynyl}benzyl)oxy]propanamide], the Ki on P. aeruginosa LpxC is greater than 3250 nM.
